The target in this assay is T1, Neutrophil elastase (Homo sapiens, UniProt P08246).
T1 sequence (P08246 whole entry): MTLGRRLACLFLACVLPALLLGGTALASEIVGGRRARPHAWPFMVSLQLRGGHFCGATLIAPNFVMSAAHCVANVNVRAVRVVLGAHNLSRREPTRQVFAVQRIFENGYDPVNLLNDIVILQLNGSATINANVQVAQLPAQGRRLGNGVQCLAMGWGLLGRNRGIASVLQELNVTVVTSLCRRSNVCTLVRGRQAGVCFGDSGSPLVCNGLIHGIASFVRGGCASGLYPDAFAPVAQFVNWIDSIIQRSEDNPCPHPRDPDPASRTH
The assay is described as follows: Elastase Activity Assay. From the text:
The elastase inhibitor activity was examined using N-succinyl-Ala-Ala-Ala-pnitroanilide (STANA) as the substrate and by the measuring of the release of p-nitroaniline at 410 nm [James et al., Biochemistry, 35:9090-9096].

SMILES strings stand for the structures.

The IC50 is the concentration that inhibits the measured activity by half. As for `CN(CCN(Cc1cc(=O)oc2c(O)c(O)ccc12)c1ccccc1)c1ccccc1` [4,4'-(Ethane-1,2-diylbis(phenylazanediyl))bis(methylene)bis(6,7-dihydroxy-2H-chromen-2-one) (7)], the IC50 was determined as 125 nM.

Compound `CN(CCN(Cc1cc(=O)oc2cc(O)c(O)cc12)c1ccccc1)c1ccccc1` [4,4'-(Ethane-1,2-diylbis(phenylazanediyl))bis(methylene)bis(7,8-dihydroxy-2H-chromen-2-one) (3)] registered an IC50 of 127 nM. Under `C[C@H]1[C@H](C)CC[C@]2(C(=O)O)CC[C@]3(C)C(=CC[C@@H]4[C@@]5(C)CC[C@H](O)C(C)(C)[C@@H]5CC[C@]43C)[C@H]12` [3beta-hydroxyurs-12-en-28-oic acid] stands 416 nM.
